Drawing on publication PMC2099433, “The binding site for neohesperidin dihydrochalcone at the human sweet taste receptor” (BMC Structural Biology, 2007), this text covers EC50 and Emax for two compounds.

Test [1] addresses T1, hTAS1R2 + hTAS1R3 S620A^2.57 (Homo sapiens, UniProt Q7RTX0+Q8TE23, S620A).
T1 construct: expressed in transfected cells; host or cells: HEK293T cells stably expressing G16Gust44
T1 sequence (Q8TE23 20-839): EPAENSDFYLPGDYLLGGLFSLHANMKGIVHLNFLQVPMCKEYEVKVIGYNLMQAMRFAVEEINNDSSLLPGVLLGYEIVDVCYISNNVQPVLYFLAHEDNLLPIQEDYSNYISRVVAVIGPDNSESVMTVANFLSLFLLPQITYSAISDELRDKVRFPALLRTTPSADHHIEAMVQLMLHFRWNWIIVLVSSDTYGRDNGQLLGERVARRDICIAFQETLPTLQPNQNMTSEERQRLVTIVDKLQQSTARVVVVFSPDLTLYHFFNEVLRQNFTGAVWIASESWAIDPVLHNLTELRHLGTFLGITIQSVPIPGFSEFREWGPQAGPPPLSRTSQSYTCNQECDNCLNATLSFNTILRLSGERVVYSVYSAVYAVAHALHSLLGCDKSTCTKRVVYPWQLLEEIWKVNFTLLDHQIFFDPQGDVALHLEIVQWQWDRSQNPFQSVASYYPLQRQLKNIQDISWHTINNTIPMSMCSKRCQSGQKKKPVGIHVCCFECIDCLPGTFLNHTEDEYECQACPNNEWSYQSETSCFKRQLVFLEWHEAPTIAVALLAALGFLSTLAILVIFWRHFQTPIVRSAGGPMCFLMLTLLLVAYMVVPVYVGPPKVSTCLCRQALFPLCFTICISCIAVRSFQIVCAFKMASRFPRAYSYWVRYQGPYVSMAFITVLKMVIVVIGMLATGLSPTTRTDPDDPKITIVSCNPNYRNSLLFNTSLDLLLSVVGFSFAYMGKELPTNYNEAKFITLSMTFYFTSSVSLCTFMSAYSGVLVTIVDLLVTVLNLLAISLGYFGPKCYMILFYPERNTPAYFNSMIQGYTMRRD
T1 sequence (Q7RTX0 21-852 S620A): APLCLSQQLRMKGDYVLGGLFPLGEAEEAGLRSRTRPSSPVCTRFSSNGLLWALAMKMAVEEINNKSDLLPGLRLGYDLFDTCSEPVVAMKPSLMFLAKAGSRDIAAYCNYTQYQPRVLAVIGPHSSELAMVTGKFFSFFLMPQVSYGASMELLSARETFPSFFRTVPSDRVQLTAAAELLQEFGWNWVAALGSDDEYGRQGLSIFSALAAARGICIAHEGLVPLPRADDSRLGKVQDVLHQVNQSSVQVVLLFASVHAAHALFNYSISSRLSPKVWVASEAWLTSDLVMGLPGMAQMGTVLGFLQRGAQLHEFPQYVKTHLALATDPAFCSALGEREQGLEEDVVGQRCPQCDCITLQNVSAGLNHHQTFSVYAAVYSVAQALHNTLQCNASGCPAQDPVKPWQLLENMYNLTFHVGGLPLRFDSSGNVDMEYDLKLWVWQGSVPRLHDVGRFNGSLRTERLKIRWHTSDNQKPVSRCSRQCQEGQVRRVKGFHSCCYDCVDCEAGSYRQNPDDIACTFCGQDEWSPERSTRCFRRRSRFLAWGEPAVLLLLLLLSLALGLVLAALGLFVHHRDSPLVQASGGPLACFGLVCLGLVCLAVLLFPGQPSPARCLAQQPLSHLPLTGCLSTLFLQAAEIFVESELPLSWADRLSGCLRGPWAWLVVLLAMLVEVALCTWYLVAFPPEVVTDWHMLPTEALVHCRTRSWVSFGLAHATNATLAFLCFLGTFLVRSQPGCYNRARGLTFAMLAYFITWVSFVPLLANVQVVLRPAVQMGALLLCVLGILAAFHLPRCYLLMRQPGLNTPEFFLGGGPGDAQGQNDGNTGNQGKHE
Put plainly: Calcium response (FLIPR), hTAS1R3 mutant coexpressed with hTAS1R2. Format: cell-based. The following applies: variant S620A^2.57; for Emax: read-out: maximal signal (% of wt). The method in brief:
(§1)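 HEK293T/G16Gust44, transient transfection of HSV-tagged TAS1R2 + TAS1R3 mutants; Fluo4-AM loading 1 h at 24 h; sweet tastants in C1 solution; FLIPR Ca2+ read; ΔF/F, mock-subtracted; ≥3 independent expts in duplicate.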

Test [2] has as its target T2, hTAS1R2 + hTAS1R3 H641A^3.33 (Homo sapiens, UniProt Q7RTX0+Q8TE23, H641A).
T2 construct: expressed in transfected cells; host or cells: HEK293T cells stably expressing G16Gust44
T2 sequence (Q8TE23 20-839): T1 sequence (Q8TE23 20-839)
T2 sequence (Q7RTX0 21-852 H641A): T1 sequence (Q7RTX0 21-852 S620A) with A600S, H621A
The description is as above. Format: cell-based. Particulars: variant H641A^3.33; for Emax: read-out: maximal signal (% of wt). The method in brief:
as §1

Positions count from the first letter of the chain named. Where a SMILES comes first, the peptide text is derived from it.

`COc1ccc(CCC(=O)c2c(O)cc(O[C@@H]3O[C@H](CO)[C@@H](O)[C@H](O)[C@H]3O[C@@H]3O[C@@H](C)[C@H](O)[C@@H](O)[C@H]3O)cc2O)cc1O` [NHDC, neohesperidin dihydrochalcone]: in test [1], the EC50 stood at 1300 ± 500 µM and the Emax came to 55 ± 80%. Also, in test [2], the EC50 was determined as 1200 ± 400 µM and the Emax amounted to 57 ± 22%.

As for `COC(=O)[C@H](Cc1ccccc1)NC(=O)[C@@H](N)CC(=O)O` [aspartame] (HELM PEPTIDE1{D.F.[CO[*:1]]}$$$$V2.0), in test [1], the EC50 was determined as 1200 ± 300 µM and the Emax came to 64 ± 4%. In test [2], the EC50 worked out at 1800 ± 400 µM and the Emax worked out at 79 ± 70%.

Usually EC50 stands for the concentration giving half of the maximal effect.
